Like-named read-outs stand apart in the source and are kept apart here.
Experiments:
mice = conditions: for behaviour following injection: mice (20 g), 200 mg/Kg
Description: Two other mice (20 g) received dichlorotaurine (0.1 mL=100 mg/Kg) s.c. at 60 min intervals for three hours.

[1] = test system: rat brain amino acid profile; assay: Effect on rat brain amino acid profile; format: in vivo, Sprague-Dawley rats; conditions: for GABA tissue content / GLUTAMATE tissue content / TAURINE tissue content: 10-30 min prior to sacrifice; for GABA tissue content / GLUTAMATE tissue content / TAURINE tissue content / RATIO GLU/TAU / RATIO GLY/GLU: average of three rats; for % change GABA / % change GLUTAMATE / % change RATIO GLU/TAU / % change RATIO GLY/GLU / % change TAURINE: dichlorotaurine vs taurine (control)
Description: Three Sprague-Dawley rats were each injected with taurine (200 mg/kg) (control), and another three Sprague-Dawley rats were each administered dichlorotaurine (200 mg/kg): one at 10 min (i.p.), one at 20 min (i.p.) and one at 30 min (i.v.) prior to sacrifice. The animals were anesthetized with ether and then sacrificied by cardiac perfusion with phosphate buffered saline for 5 min, before the brains were removed at room temp.
Brain regions were dissected by hand on a glass cold plate (4-6° C.). The samples were homogenized in 9× weight by volume of water, then perchloric acid was added to a final concentration of 0.6 M to precipitate proteins. Samples (20 μL) were neutralized with 15 μL 2M KHCO3. The extracts were centrifuged and supernatants were diluted with water 1:100. Amino acid analysis was performed by derivatization with o-phthaldialdehyde followed by liquid chromatography (Varian LC 5000 and Schoeffel FS 970 fluorometer). […] Identification and quantification by peak height was calibrated against a standard amino acid solution.
Data are shown in Table1, below, where each taurine (control) value and dichlorotaurine value is the average of the three respective rats. The amino acid values represent endogenous neural tissue content and not extracellular (release) concentrations. The most pronounced effects of the dichlorotaurine are on the cortex-hippocampus. The data are interpreted as directed towards reduced (↓) excitability. Moreover, the data provide evidence that administration of dichlorotaurine attenuates the pathological consequences of excessive glutamate release, which is known to occur under clinical conditions such as, for example, epilepsy, intractable pain disorders, Huntington's Disease, Parkinson's Disease, and abnormalities associated with CNS trauma (e.g., stroke, spinal cord injury, impact trauma).

[2] = Stability on storage and in water or solvents (TLC and NMR monitoring); format: physicochemical
Description: Taurine (1.5 g) was suspended in a mixture of methanol (50 mL) and 4 M aqueous hydrochloric acid (25 mL). To this was added in small aliquots 4-6% aqueous sodium hypochlorite (40 mL) with stirring. The taurine dissolved with evolution of gentle heat. After 2 h the solution was concentrated (below 30° C.) to a small volume. Ethanol (200 mL) was added and the precipitated sodium chloride was removed by filtration. This procedure was repeated until no more precipitate formed. After concentration to a small volume of oily residue, 50/50 methanol-ethyl acetate (100 mL) was added, and the mixture was again filtered to remove residual sodium chloride. Upon reconcentration, the residue was treated with 0.04 M aqueous hydrochloric acid in acetone (25 mL). Slow concentration yielded white, iridescent plates, (0.7 g). […] Detection was by spraying with 2% KI-starch (yellow-brown) followed by ethanolic ninhydrin (faintly pink); M.P. 148° C. UV (λmax) 310 nm (ε1.851×10^2, 95% ethanol); ^1Hmr (D2O) 3.05-3.2(2H, m) and 3.95-4.05(2H, m); MS (es−): 191.9(18.76%), 193.8 (13.41%), 195.8(2.83%).
The chlorinaton and desalting methodology was essentially similar to that for taurine. […] Final isolation was from 50/50 (^v/v) diethylether-methanol plus dichloromethane, followed by slow evaporation at approximately 0-4° C. M.P. 197° C.; UV: λmax 308 (ε1.486×10^2, 95% ethanol); ^1Hmr (D2O) δ: 2.05-2.15 (2H, m, αCH2), 2.95-3.05 (2H, m, βCH2), 3.9-4.0 (2H, m, γCH2); MS (es−): 205.9(1.4%), 207.9(0.88%), 210.0(0.31%).
N,N-dichloro-GABA: UV: λmax 308 nm (ε2.974×10^2, 95% ethanol); ^1Hmr (CDCl3) δ: 1.95-2.05 (2H, m,αCH2), 2.4-2.5 (2H, m, βCH2), 3.6-3.75 (2H, m, γCH2). Decomposition in water was about 50% in 3 h at room temperature (TLC monitored). […]
The procedure for the synthesis of N′N′-dichloro-leucine was identical to that for the dichloroGABA. The product is a pale-yellow oil. When stored in dichloromethane, at −10° C.; the compound readily decomposed with an approximate half-life of 1 h.
From the above Examples it is apparent that dichlorination of ω-amino acids yields products which vary considerably in their stability. […] The most important precaution required for stable storage is the removal of all traces of water. […] A yield of between 30-60% was obtained, which can be improved by more efficiently exploiting the fact that primary amines are far less soluble than their chlorinated products in non-polar solvents. Those of ordinary skill in the art will recognize that the methods for isolation of the chlorinated amino acids described here can be extended to other α-carboxyl amino acids, as well as peptides and proteins.

[3] = frontal cortex, rats, 200 mg/kg
[4] = mice, 100 mg/Kg s.c. at 60 min intervals for three hours

NCCS(=O)(=O)O [taurine, reference compound]
behaviour following injection (mice): normal behaviour | GABA tissue content ([1]; brain stem, rats, 200 mg/kg): 2.25 nmoles/mg wet weight | GLUTAMATE tissue content ([1]; brain stem, rats, 200 mg/kg): 8.20 nmoles/mg wet weight | TAURINE tissue content ([1]; brain stem, rats, 200 mg/kg): 2.29 nmoles/mg wet weight | RATIO GLU/TAU ([1]; brain stem, rats, 200 mg/kg): 3.73 | RATIO GLY/GLU ([1]; brain stem, rats, 200 mg/kg): 1.30 | GABA tissue content ([1]; cerebellum, rats, 200 mg/kg): 2.25 nmoles/mg wet weight | GLUTAMATE tissue content ([1]; cerebellum, rats, 200 mg/kg): 11.32 nmoles/mg wet weight | TAURINE tissue content ([1]; cerebellum, rats, 200 mg/kg): 5.38 nmoles/mg wet weight | RATIO GLU/TAU ([1]; cerebellum, rats, 200 mg/kg): 2.15 | RATIO GLY/GLU ([1]; cerebellum, rats, 200 mg/kg): 0.48 | GABA tissue content [1, 3]: 2.28 nmoles/mg wet weight | GLUTAMATE tissue content [1, 3]: 15.04 nmoles/mg wet weight | TAURINE tissue content [1, 3]: 7.67 nmoles/mg wet weight | RATIO GLU/TAU [1, 3]: 1.98 | RATIO GLY/GLU [1, 3]: 0.28 | GABA tissue content ([1]; hippocampus, rats, 200 mg/kg): 2.83 nmoles/mg wet weight | GLUTAMATE tissue content ([1]; hippocampus, rats, 200 mg/kg): 13.82 nmoles/mg wet weight | TAURINE tissue content ([1]; hippocampus, rats, 200 mg/kg): 7.38 nmoles/mg wet weight | RATIO GLU/TAU ([1]; hippocampus, rats, 200 mg/kg): 1.91 | RATIO GLY/GLU ([1]; hippocampus, rats, 200 mg/kg): 0.36

O=S(=O)(O)CCN(Cl)Cl [dichlorotaurine, N′N′-dichlorotaurine]
onset of severe ataxia, laboured breathing and grooming behaviour towards the site of injection (mice; male mice (20 g), 200 mg/Kg i.p.): ≤ 5 min | behaviour following injection (mice): very quiet, showed strongly reduced responsiveness to environmental stimuli, and reduced mobility | Onset of sedation following the first injection (mice; [4]): 5 min | effect of the two subsequent injections on behaviour (mice; [4]): did not aggravate nor modify the tranquil behaviour | time after last injection to start of return to normal behaviour (mice; [4]): Two to three hours | Observation for the next 24 h (mice; mouse, in vivo, sc, 100 mg/kg): did not reveal any abnormalities | relative stability when in contact with water [2]: the most | stability when dry [2]: reasonably stable for up to a month | storage stability [2]: stable for at least one month without appreciable decomposition | decomposition in 95% ethanol ([2]; 95% ethanol, over 48 h): little or no decomposition | stable in water ([2]; water, ambient temperature, TLC and NMR monitoring): at least 3 h | interpretation ([1]; GABA changes): ↓ excitability | interpretation ([1]; GLUTAMATE changes): ↓ excitability | interpretation ([1]; RATIO GLU/TAU changes): ↓ excitability | interpretation ([1]; RATIO GLY/GLU changes): ↓ excitability | interpretation ([1]; TAURINE changes): ↓ excitability | % change GABA ([1]; brain stem): — (±15% considered non-significant: no change) | % change GLUTAMATE ([1]; brain stem): — (±15% considered non-significant: no change) | % change RATIO GLU/TAU ([1]; brain stem): −33% | % change RATIO GLY/GLU ([1]; brain stem): +19% | % change TAURINE ([1]; brain stem): —* (±15% considered non-significant: no change) | GABA tissue content ([1]; brain stem, rats, 200 mg/kg): 2.32 nmoles/mg wet weight | GLUTAMATE tissue content ([1]; brain stem, rats, 200 mg/kg): 7.19 nmoles/mg wet weight | TAURINE tissue content ([1]; brain stem, rats, 200 mg/kg): 2.63 nmoles/mg wet weight | RATIO GLU/TAU ([1]; brain stem, rats, 200 mg/kg): 2.50 | RATIO GLY/GLU ([1]; brain stem, rats, 200 mg/kg): 1.55 | % change GABA ([1]; cerebellum): — (±15% considered non-significant: no change) | % change GLUTAMATE ([1]; cerebellum): — (±15% considered non-significant: no change) | % change RATIO GLU/TAU ([1]; cerebellum): — (±15% considered non-significant: no change) | % change RATIO GLY/GLU ([1]; cerebellum): — (±15% considered non-significant: no change) | % change TAURINE ([1]; cerebellum): — (±15% considered non-significant: no change) | GABA tissue content ([1]; cerebellum, rats, 200 mg/kg): 1.97 nmoles/mg wet weight | GLUTAMATE tissue content ([1]; cerebellum, rats, 200 mg/kg): 10.29 nmoles/mg wet weight | TAURINE tissue content ([1]; cerebellum, rats, 200 mg/kg): 5.36 nmoles/mg wet weight | RATIO GLU/TAU ([1]; cerebellum, rats, 200 mg/kg): 2.01 | RATIO GLY/GLU ([1]; cerebellum, rats, 200 mg/kg): 0.46 | % change GABA ([1]; frontal cortex): +29% | % change GLUTAMATE ([1]; frontal cortex): −20% | % change RATIO GLU/TAU ([1]; frontal cortex): −33% | % change RATIO GLY/GLU ([1]; frontal cortex): +42% | % change TAURINE ([1]; frontal cortex): +30% | GABA tissue content [1, 3]: 2.93 nmoles/mg wet weight | GLUTAMATE tissue content [1, 3]: 11.90 nmoles/mg wet weight | TAURINE tissue content [1, 3]: 10.00 nmoles/mg wet weight | RATIO GLU/TAU [1, 3]: 1.32 | RATIO GLY/GLU [1, 3]: 0.40 | % change GABA ([1]; hippocampus): +32% | % change GLUTAMATE ([1]; hippocampus): — (±15% considered non-significant: no change) | % change RATIO GLU/TAU ([1]; hippocampus): −24% | % change RATIO GLY/GLU ([1]; hippocampus): +20% | % change TAURINE ([1]; hippocampus): +52% | GABA tissue content ([1]; hippocampus, rats, 200 mg/kg): 3.73 nmoles/mg wet weight | GLUTAMATE tissue content ([1]; hippocampus, rats, 200 mg/kg): 15.76 nmoles/mg wet weight | TAURINE tissue content ([1]; hippocampus, rats, 200 mg/kg): 11.22 nmoles/mg wet weight | RATIO GLU/TAU ([1]; hippocampus, rats, 200 mg/kg): 1.45 | RATIO GLY/GLU ([1]; hippocampus, rats, 200 mg/kg): 0.43 | brain region of the most pronounced effects ([1]; rats, 200 mg/kg): cortex-hippocampus

O=C(O)CCCN(Cl)Cl [N,N-dichloro-GABA, N,N-dichloro-γ-aminobutyric Acid]
relative stability when in contact with water [2]: the least stable | Decomposition in water ([2]; 3 h at room temperature, TLC monitored): about 50%

CC(C)C[C@@H](C(=O)O)N(Cl)Cl [N′N′-dichloro-leucine, N,N-dichloro-L-leucine, reference compound]
relative stability when in contact with water ([2]; in contact with water): the least stable | half-life ([2]; stored in dichloromethane at −10° C., read-out: half-life of decomposition (converted)): ~1 h

O=C(O)CCN(Cl)Cl [N,N-dichloro-β-alanine, N′N′-dichloro-β-alanine]
relative stability in water or 95% ethanol [2]: More stable than N,N-dichloro-GABA

Source: patent US6451761B1, “N′N′-dichlorinated omega-amino acids and uses thereof” (Queen's University at Kingston, priority 1999, dated 2002)
